What was measured:
dandelions [1] = assay: Example 1 field test of iron chelates, dandelion damage; assay type: in vivo, Taraxacum officinale; conditions: sprayed once at 100 ml/m^2, 5 days after spraying
Description: (§1) The following non-limiting examples serve to further describe the invention. Unless otherwise specified, all of the iron solutions were made using the same molar concentration of iron ion as chelating agent. All of the outside tests were done on areas of mixed grass and dandelions that were at least 2 months old. For the greenhouse tests, dandelions were grown in a commercial greenhouse mix, using supplemental lighting and heating. Each plant was grown in a 2¼ inch pot to a minimum diameter of 20 cm. All of the solutions were sprayed onto the plants at a rate of 100 ml/m^2. The ferrous sulfate formulations that were used in examples 1, 2, 8 and 9 contained 1% iron (180 mM), 18 mM EDTA, 1% citric acid and 0.5% urea. In all of the examples, the amount of iron is identified in brackets as the percent iron on a weight basis.
(§2) All plant damage was assessed using a qualitative rating scale from 0 to 9.
All of the iron chelates were sprayed once at 0.2% Fe^+3 (35.8 mM), at a volume of 100 ml/m^2 onto 0.5 m^2 areas of mixed grass and dandelions. The spraying of the test was followed by 2 days of rain-free weather. Observations were made 5 days after spraying.

grass [2] = assay: Example 2 field test of FeEDDS and FeHEDTA at pH 3 and 7, grass; assay type: in vivo; conditions: in vivo
Description: as §1, §2
The FeEDDS and FeHEDTA solutions contained 0.2% Fe^+3 (35.8 mM). The ferrous sulfate contained 1% Fe^+2 (179.1 mM). The solutions were sprayed at a rate of 0.1 L/m^2 onto 2 plots of 0.5 m^2 of mixed grass and dandelions. Observations were made 4 days after spraying.

dandelions [3] = assay: Example 4 effect of pH on FeHEDTA, greenhouse dandelions; assay type: in vivo, Taraxacum officinale; conditions: for Dead (#/10): 8 + 5 days after spraying
Description: as §1, §2
This test compared the effects of FeHEDTA at a range of pH values to potted, greenhouse-grown dandelions. All of the solutions were applied at 0.2% Fe^+3 (35.8 mM). Ammonium sulfate was added at 2%. The plants were re-sprayed after 8 days.

grass [4] = assay: Example 13 field test, grass; assay type: in vivo
Description: Killex® (Green Cross, Ontario, Canada) is a commonly used selective lawn herbicide and was included in several field tests as a standard. Killex contains 2,4-D (9.5%), mecoprop (5%) and dicamba (0.9%). The product was diluted 6 ml into 1 L of water solution and applied at rate of 200 ml/m^2, as per label instructions.
This test evaluated FeEDDS (0.4% Fe^+3) and FeHEDTA (0.2% Fe^+3) for controlling the weed hairy cat's ear (Hypochoeris radicata), also known as “false dandelion”, grown in areas of mixed grass and Hypochoeris. The iron solutions were sprayed at a rate of 100 ml/m^2 to 1.0 m^2 plots. The iron treatments were resprayed after 7 and 14 days. Killex (Solaris ON, Canada) was diluted and applied once as per label instructions of 6 ml /L applied at 200 ml/m^2.

perennial ryegrass = assay: Example 18 FeHEDTA with Killex, perennial ryegrass; assay type: in vivo
Description: (§3) Plants were fertilized with an all purpose water-soluble fertilizer mix of 20-20-20 (N-P-K; Plant-Prod®) as needed. All broadleaf weeds were grown individually in a 2¼-inch pot until they were a suitable size for herbicide tests (actual weed size is reported in examples below). Perennial ryegrass was also grown in 2¼-inch pots, however many grass seeds were sown in the pot to simulate a small section of turf. Grass plants were continually trimmed to a height of 4 cm, simulating that of a homeowner's lawn. For field tests, plots ¼ m^2 in size were marked out in areas containing the targeted broadleaf weed species growing in turf grass. Plots were continually mowed to simulate a homeowner's lawn. […] In all of the examples, the amounts of the various herbicide components are identified as a percent on a weight basis.
(§4) Killex® (Scotts Canada, Ltd., Ontario, Canada) is a commonly used selective lawn herbicide and was used as the commercial herbicide for herbicide combinations. The labeled dilution and application rates for Killex® are 6 ml into 1 L of solution (0.6%) applied at 200 ml/m^2.
(§5) All visual plant damage assessments were made using a quantitative rating scale; percent control relative to the untreated check (0=no effect; 100=plant death).
Materials and Methods: This trial was conducted in the greenhouse. Nine pots of white clover and 10 pots of perennial ryegrass were selected for each treatment. Herbicide solutions were prepared using deionized water. The treatments were applied using a hand-trigger sprayer at 200 ml/m^2. All treatments were applied once. Phytotoxicity (%) was assessed 4, 7, and 14 days after application (A4, A7, and A14).

dandelion = assay: Example 21 Fe chelates with Killex, dandelion; assay type: in vivo, Taraxacum officinale; conditions: A29 = 29 days after treatment
Description: as §3, §4, §5
Materials and Methods: This trial was conducted in the greenhouse. […] Phytotoxicity (%) was assessed 29 days after treatment (A29).

## O=C([O-])CN(CCO)CCN(CC(=O)[O-])CC(=O)[O-].[Fe+3] [FeHEDTA]
Dandelions [1]
  Dandelion Damage (0 to 9): 8.9 0 to 9
Grass [2]; pH 2.6
  Grass Damage (0 to 9): 0.0 0 to 9
Grass [2]; pH 7
  Grass Damage (0 to 9): 1.0 0 to 9
Dandelions [3]; 8 + 5 days after spraying (re-sprayed after 8 days), listed as FeHEDTA pH 3 (0.2% Fe)
  Plant Damage (0 to 9): 6.8 0 to 9
Dandelions [3]; 8 + 5 days after spraying (re-sprayed after 8 days), listed as FeHEDTA pH 5 (0.2% Fe)
  Plant Damage (0 to 9): 5.4 0 to 9
Dandelions [3]; 8 + 5 days after spraying (re-sprayed after 8 days), listed as FeHEDTA pH 7 (0.2% Fe)
  Plant Damage (0 to 9): 5.1 0 to 9
Dandelions [3]; 8 + 5 days after spraying (re-sprayed after 8 days), listed as FeHEDTA pH 9 (0.2% Fe)
  Plant Damage (0 to 9): 3.6 0 to 9
Dandelions [3]; 8 + 5 days after spraying (re-sprayed after 8 days), listed as FeHEDTA pH 11 (0.2% Fe)
  Plant Damage (0 to 9): 6.6 0 to 9
Dandelions [3]; listed as FeHEDTA pH 3 (0.2% Fe)
  Dead (#/10): 5 #/10
Dandelions [3]; listed as FeHEDTA pH 5 (0.2% Fe)
  Dead (#/10): 3 #/10
Dandelions [3]; listed as FeHEDTA pH 7 (0.2% Fe)
  Dead (#/10): 2 #/10
Dandelions [3]; listed as FeHEDTA pH 9 (0.2% Fe)
  Dead (#/10): 1 #/10
Dandelions [3]; listed as FeHEDTA pH 11 (0.2% Fe)
  Dead (#/10): 5 #/10
Dandelions [3]; 7 days after spraying, listed as FeHEDTA pH 3 (0.2% Fe)
  Plant Damage (0 to 9): 3.2 0 to 9
Dandelions [3]; 7 days after spraying, listed as FeHEDTA pH 5 (0.2% Fe)
  Plant Damage (0 to 9): 2.6 0 to 9
Dandelions [3]; 7 days after spraying, listed as FeHEDTA pH 7 (0.2% Fe)
  Plant Damage (0 to 9): 1.9 0 to 9
Dandelions [3]; 7 days after spraying, listed as FeHEDTA pH 9 (0.2% Fe)
  Plant Damage (0 to 9): 2.0 0 to 9
Dandelions [3]; 7 days after spraying, listed as FeHEDTA pH 11 (0.2% Fe)
  Plant Damage (0 to 9): 3.8 0 to 9
Grass [4]; day 0
  Area Covered by Hairy Grass (%): 15%
  Relative Grass Area (Start = 100%): 100%
Grass [4]; day 6
  Area Covered by Hairy Grass (%): 47%
  Relative Grass Area (Start = 100%): 313%
Grass [4]; day 8
  Area Covered by Hairy Grass (%): 40%
  Relative Grass Area (Start = 100%): 267%
Grass [4]; day 15
  Area Covered by Hairy Grass (%): 50%
  Relative Grass Area (Start = 100%): 333%
Grass [4]; day 18
  Area Covered by Hairy Grass (%): 46%
  Relative Grass Area (Start = 100%): 307%
Perennial ryegrass; A4
  Phytotoxicity (%) on perennial ryegrass: 2%
Perennial ryegrass; A7
  Phytotoxicity (%) on perennial ryegrass: 1%
Perennial ryegrass; A14
  Phytotoxicity (%) on perennial ryegrass: 2%
dandelion
  Phytotoxicity (%) against dandelion: 24%
